Some results are limits rather than exact numbers.

Assay [1] is described as follows: Potency ratio (the ratio between the CD50 value of the drug in the presence of antagonist versus its CD50 value) for compound in presence of CPP compound in presence of NBQX; range 1.1-1.3. It is filed as functional.
In assay [2] the target is Glutamate receptor ionotropic, AMPA (Rattus norvegicus, UniProt P19490+P19491+P19492+P19493).
Description: Compound was evaluated for binding affinity at Ionotropic glutamate receptor AMPA using [3H]AMPA as radioligand
Assay [3] deals with Mus musculus. Briefly: In Vivo evaluation of the Compound administered through icv for the tonicity in presence alone in mice. It is filed as functional.
For assay [4], the system named is Mus musculus. In words: In Vivo evaluation of the Compound administered through icv for the Clonic seizure presence along with the antagonist GYKI 52466 in mice. It is filed as functional.
The nature of assay [5]: Potency ratio (the ratio between the CD50 value of the drug in the presence of antagonist versus its CD50 value) for compound in presence of GYKI 52466; range 1.4-2.1. It is filed as functional.
Assay [6] deals with Glutamate receptor ionotropic, kainate. In words: Compound was evaluated for binding affinity at Ionotropic glutamate receptor kainate using [3H]- KAIN as radioligand. It is filed as protein-complex assay.
Assay [7] is described as follows: Potency ratio (the ratio between the CD50 value of the drug in the presence of antagonist versus its CD50 value) for compound in presence of CPP; range 2.9-3.4. Format: functional.
For assay [8], the system named is Mus musculus. Briefly: In Vivo evaluation of the Compound administered through icv for the Clonic seizure presence along with […] in mice. (+/-95% confidence limits within parenthesis); nM per mouse. It is filed as functional.
The test system of assay [9] is Mus musculus. In words: In Vivo evaluation of the Compound administered through icv for the Clonic seizure presence alone in mice. It is filed as functional.
The target of a further assay is Glutamate NMDA receptor. In words: Compound was evaluated for binding affinity at N-methyl-D-aspartate glutamate receptor using [3H]CPP as radioligand. Format: protein-complex assay.
Assay [10] has as its system Mus musculus. In words: In Vivo evaluation of the Compound administered through icv for tonicity in presence along with the antagonist GYKI 52466 in mice. Format: functional.
For assay [11], the system named is Mus musculus. In words: In Vivo evaluation of the Compound administered through icv for tonicity in presence alone in mice. Format: functional.
Assay [12] has as its system Mus musculus. Briefly: In Vivo evaluation of the Compound administered through icv for tonicity in presence of the compound along with the antagonist NBQX in mice. Format: functional.
Assay [13] concerns Mus musculus. In words: In Vivo evaluation of the Compound administered through icv for tonicity in presence along with […] in mice. It is filed as functional.
Assay [14] has as its system Mus musculus. Briefly: In Vivo evaluation of the Compound administered through icv for the Clonic seizure presence along with […] in mice. Format: functional.
The subject of assay [15] is Mus musculus. In words: In Vivo evaluation of the Compound administered through icv for the Clonic seizure presence of the compound along with the antagonist NBQX in mice. Format: functional.
Assay [16] concerns Mus musculus. In words: In Vivo evaluation of the Compound administered through icv for tonicity in presence alone in mice. It is filed as functional.
In assay [17] the test system is Mus musculus. Briefly: In Vivo evaluation of the Compound administered through icv for the for tonicity in presence along with the antagonist GYKI 52466 in mice. Format: functional.
Assay [18] deals with Mus musculus. Briefly: In Vivo evaluation of the Compound administered through icv for the for tonicity in presence of the compound along with the antagonist NBQX in mice. It is filed as functional.
Assay [19] has as its system Mus musculus. In words: In Vivo evaluation of the Compound administered through icv for the Clonic seizure presence of the compound along with the antagonist NBQX in mice. It is filed as functional.
For assay [20], the system named is Mus musculus. Briefly: In Vivo evaluation of the Compound administered through icv for the for tonicity in presence along with […] in mice. It is filed as functional.
Assay [21] deals with Mus musculus. In words: In Vivo evaluation of the Compound administered through icv for the tonicity in presence along with the antagonist GYKI 52466 in mice. It is filed as functional.
For assay [22], the system named is Mus musculus. In words: In Vivo evaluation of the Compound administered through icv for the Clonic seizure presence along with the antagonist GYKI 52466 in mice. Format: functional.
Assay [23] relates to Mus musculus. In words: In Vivo evaluation of the Compound administered through icv for tonicity in presence along with the antagonist NBQX in mice. It is filed as functional.
For assay [24], the system named is Mus musculus. In words: In Vivo evaluation of the Compound administered through icv for the Clonic seizure presence along with the antagonist NBQX in mice. It is filed as functional.

One may read the IC50 as the concentration needed to halve the response being measured. High values mean weaker potency, low ones greater potency. Consider `O=C(O)C1=NO[C@H]2[C@@H]1CN[C@@H]2C(=O)O`, for which the Ratio in assay [1] stood at 1.1; in assay [5] it was 1.4; in assay [7] it was 2.9. The IC50 in assay [2] was 24.7 µM; in assay [6], 48 µM; at Glutamate NMDA receptor it was 23 µM. In addition, the CD50 in the assay with Mus musculus [3] is 39.9 nM; in the assay on Mus musculus [4], 17.5 nmol/mouse; in the assay with Mus musculus [8], 24.82 nM; in the assay on Mus musculus [9], 8.48 nmol/mouse.

Consider `C=C(C)[C@H]1CN[C@H](C(=O)O)[C@H]1CC(=O)O` [KAINIC ACID], for which the CD50 is 0.232 nmol/mouse with Mus musculus [10]; 0.032 nmol/mouse in the assay on Mus musculus [11]; 0.468 nmol/mouse in the assay with Mus musculus [12]; 0.071 nmol/mouse in the assay on Mus musculus [4]; 0.071 nmol/mouse in the assay on Mus musculus [13]; 0.024 nmol/mouse with Mus musculus [14]. Moreover, the CD50 in the assay on Mus musculus [15] turned out to be 0.094 nmol; in the assay on Mus musculus [9], 0.015 nmol/mouse. The same compound displayed a concentration for half-maximal inhibition (IC50) at Glutamate NMDA receptor of more than 100 µM.

On to `Cc1onc(O)c1C[C@H](N)C(=O)O` [(S)-AMPA], for which the CD50 stood at 2.9 nmol in the assay on Mus musculus [16]; 7.61 nmol/mouse in the assay with Mus musculus [4]; 16.1 nmol in the assay with Mus musculus [17]; 2.69 nmol/mouse in the assay on Mus musculus [14]; 15.7 nmol in the assay on Mus musculus [18]; 6.7 nmol/mouse in the assay on Mus musculus [19]. The CD50 came to 3.18 nM in the assay on Mus musculus [20] and 1.76 nmol/mouse in the assay with Mus musculus [9].

For the compound `O=C(O)C1=NO[C@H]2CN[C@H](C(=O)O)[C@@H]12`, the CD50 with Mus musculus [21] stood at 1.26 nM; with Mus musculus [22], 0.5 nM; with Mus musculus [23] it was 0.99 nM; with Mus musculus [13], 0.19 nmol; in the assay on Mus musculus [14], 0.039 nmol/mouse; with Mus musculus [9] it was 0.027 nmol/mouse. Moreover, the CD50 with Mus musculus [24] is 0.43 nM. Moreover, the figures for the IC50 (in assay [2]; in assay [6]; at Glutamate NMDA receptor) were 1.3 µM, 0.48 µM and more than 100 µM, respectively.

Values taken from ChEMBL document CHEMBL1131292, “Synthesis and pharmacology of a new AMPA-kainate receptor agonist with potent convulsant activity” (J Med Chem, 1998).
